Results on 11 compounds are retold here after patent US10875855B2 (priority 2011, dated 2020).

Each structure is given as a SMILES string. Like-named read-outs stand apart in the source and are kept apart here.

Experiment [1] has as its system influenza A virus (A/PR/8/34). Briefly: MDCK cytopathic effect (CPE) cell protection assay, ATP detection. The experiment is classed as cell-based. Particulars: Influenza A virus, PR/8, MDCK. On the technique in general: Cytopathic effects are the visible damage that an infection or toxin causes in cultured cells.
Experiment [2] relates to influenza A virus (A/PR/8/34). The experiment can be described thus: microbe, parasite or virus in culture. The experiment is classed as cell-based. Particulars: Influenza A virus, PR/8, Table 1, mean all, class symbol; for EC99: read-out: bDNA EC99; for EC50: viral RNA 50% of control wells, read-out: bDNA EC50.
Where [3] appears, read: Table 2, class symbol in brackets, read-out: MDCK cell IC50 (uM), class.
[4] abbreviates: Table 2, comparison compounds of WO2005/095400, mean value, read-out: MDCK cell IC50.

The term IC50 denotes the concentration that gives 50% inhibition. As a reminder, the EC99 is the concentration needed for an effect of 99%. For orientation: EC50 means the concentration needed to bring the measured effect to its halfway point. Take `CC1(C(CC(=O)O)Nc2nc(-c3n[nH]c4ncc(F)cc34)ncc2F)CCCC1` (racemic) [Compound 12, (+/−)-3-(5-fluoro-2-(5-fluoro-1H-pyrazolo[3,4-b]pyridin-3-yl)pyrimidin-4-ylamino)-3-(1-methylcyclopentyl)propanoic acid]: the IC50 in experiment [1] (72 h, Table 1, MDCK cells, A/PR/8/34, 72 hours, 50% cell protection, mean all, class symbol, read-out: MDCK IC50) is < 0.3 µM. Besides, in experiment [2], the concentration for an effect of 99% (EC99) was < 0.3 µM and the EC50 was < 300 nM.
Consider `CNS(=O)(=O)C[C@@H](Nc1nc(-c2c[nH]c3ncc(F)cc23)c(C#N)cc1F)C(C)(C)C` [Compound 26, (S)-2-(5-Cyano-3-fluoro-6-(5-fluoro-1H-pyrrolo[2,3-b]pyridin-3-yl)pyridin-2ylamino)-N,3,3-trimethylbutane-1-sulfonamide], for which, in experiment [2], the EC99 was < 0.3 µM and the EC50 is < 300 nM.
For the compound `CN(C)S(=O)(=O)C[C@@H](Nc1nc(-c2c[nH]c3ncc(F)cc23)c(C#N)cc1F)C(C)(C)C` [Compound 27, (S)-2-(5-Cyano-3-fluoro-6-(5-fluoro-1H-pyrrolo[2,3-b]pyridin-3-yl)pyridin-2ylamino)-N,N,3,3-tetramethylbutane-1-sulfonamide], in experiment [2], the EC99 lay within 0.3 to 3.3 µM and the EC50 is < 300 nM.
`CC(C)(C)[C@@H](CS(=O)(=O)NC1CC1)Nc1nc(-c2c[nH]c3ncc(F)cc23)c(C#N)cc1F` [Compound 28, (S)-2-(5-Cyano-3-fluoro-6-(5-fluoro-1H-pyrrolo[2,3-b]pyridin-3-yl)pyridin-2ylamino)-N-cyclopropyl-3,3-dimethylbutane-1-sulfonamide]: in experiment [2], the EC99 was < 0.3 µM and the EC50 is < 300 nM.
For `COCCNS(=O)(=O)C[C@@H](Nc1nc(-c2c[nH]c3ncc(F)cc23)c(C#N)cc1F)C(C)(C)C` [Compound 29, (S)-2-((5-cyano-3-fluoro-6-(5-fluoro-1H-pyrrolo[2,3-b]pyridin-3-yl)pyridin-2-yl)amino)-N-(2-methoxyethyl)-3,3-dimethylbutane-1-sulfonamide], in that order: 0.3 to 3.3 µM and < 300 nM.
Consider `CC(C)(C)[C@@H](CS(N)(=O)=O)Nc1nc(-c2c[nH]c3ncc(F)cc23)c(C#N)cc1F` [Compound 30, (S)-2-((5-cyano-3-fluoro-6-(5-fluoro-1H-pyrrolo[2,3-b]pyridin-3-yl)pyridin-2-yl)amino)-3,3-dimethylbutane-1-sulfonamide], for which, in experiment [2], the EC99 was < 0.3 µM and the concentration for a half-maximal effect (EC50) was < 300 nM.
On to `CCCNS(=O)(=O)C[C@@H](Nc1nc(-c2c[nH]c3ncc(F)cc23)c(C#N)cc1F)C(C)(C)C` [Compound 31, (S)-2-((5-cyano-3-fluoro-6-(5-fluoro-1H-pyrrolo[2,3-b]pyridin-3-yl)pyridin-2-yl)amino)-3,3-dimethyl-N-propylbutane-1-sulfonamide], for which, in experiment [2], the EC99 is < 0.3 µM and the EC50 is < 300 nM.
In the case of `CC(C)(C)C(C[S@+]([O-])CC(=O)O)Nc1nc(-c2c[nH]c3ncc(F)cc23)ncc1F` (stereo partly drawn) [Compound 64, 2-((S)-2-(5-fluoro-2-(5-fluoro-1H-pyrrolo[2,3-b]pyridin-3-yl)pyrimidin-4-ylamino)-3,3-dimethylbutylsulfinyl)ethanoic acid], in experiment [2], the EC99 was > 3.3 µM and the EC50 was < 300 nM.
On to `CC(O)C[C@@H](Nc1nc(-c2c[nH]c3ncc(F)cc23)ncc1F)C(C)(C)C` (stereo partly drawn) [Compound 72, (4R)-4-((5-Fluoro-2-(5-fluoro-1H-pyrrolo[2,3-b]pyridin-3-yl)pyrimidin-4-yl)amino)-5,5-dimethylhexan-2-ol], for which, in experiment [2], the EC99 is > 3.3 µM.
Regarding `Clc1cnc2[nH]cc(-c3cccc(NC4CCCCC4)n3)c2c1` [Compound C1, reference compound], the IC50 in experiment [1] (setting [3]) was > 3.3 µM; in experiment [1] (setting [4]), > 20 µM.
Take `Clc1cnc2[nH]cc(-c3cccc(NCC4CCCNC4)n3)c2c1` (stereo not shown) [Compound C2, reference compound]: the half-maximal inhibitory concentration (IC50) is > 3.3 µM in experiment [1] (setting [3]) and > 20 µM in experiment [1] (setting [4]).
